≈ marks a conversion by molar mass, not a printed value. Like-named read-outs stand apart in the source and are kept apart here. Non-standard residues stand in square brackets, D forms with d. Residues, ends and D or L forms follow the SMILES beside them. No end group written: not given here. Nle = CCCC[C@H](N)C(=O)O
Tests used:
CRPA = assay: MBC, evaluation of antibacterial activities of KU-5878 variants; assay type: cell-based; conditions: Tables 11-15, no unit printed
Procedure: Variants were prepared by deleting one amino acid from the amino acid sequence of KU-5878 (SEQ ID NO: 13), and the antibacterial activities thereof were evaluated.
Variants were prepared by deleting two or more amino acids from the amino acid sequence of KU-5878 (SEQ ID NO: 13), and the antibacterial activities thereof were evaluated.
One amino acid in the amino acid sequence of KU-5878 (SEQ ID NO: 13) was substituted, and the antibacterial activities of the peptides were evaluated.
Substitutions of Q62K, S63K and T66K were sequentially added to the amino acid sequence of KU-5878-T59K, and the antibacterial activities of the peptides were evaluated.
An amino acid repeat sequence was added to the C-terminus of KU-5878, and the antibacterial activities of the peptides were evaluated. According to Table 15 below, when the R (arginine) repeat sequence or K (lysine) sequence was added to the C-terminus of KU-5878, the antibacterial activity of the peptide increased.

[1] = test system: Staphylococcus aureus (ATCC 29213); assay type: cell-based; conditions: for MBC Staphylococcus aureus: Tables 11-15, no unit printed
Text: (§1) Romo1 protein comprises two α-helices. The present inventors synthesized the α-helix 2 region having both hydrophilicity and hydrophobicity, and evaluated the antibacterial activity thereof using minimum bactericidal concentration (MBC) assay. The α-helix 2 region was named KU-5279 (the 52-79 amino acid region of Romo1 protein). Then, in order to identify peptides that are beneficial for human application and have excellent antibacterial activity, the present inventors synthesized several peptides comprising a sequence of contiguous amino acids starting at any amino acid selected from the 52-79 amino acid region of Romo1 protein, and comparatively evaluated the antibacterial activities of the peptides by minimum bactericidal concentration assay (See Table 1 below for information on each peptide). Evaluation of the antibacterial activity of each peptide by minimum bactericidal concentration assay was specifically performed as follows. First, each of Pseudomonas aeruginosa (ATCC 27853) and Staphylococcus aureus (ATCC 29213) was cultured in 3% (w/v) TSB (Tryptic Soy Broth) liquid medium at 37° C. and 200 rpm for 4 hours, and then further cultured under the same conditions for 3 hours to a concentration of 5×10^6 CFU/ml. Strain solutions were prepared by diluting each of the further cultured strains with SP (sodium phosphate; 10 mM sodium phosphate, 1% TSB) buffer to a final concentration of 2×10^5 CFU/ml. Then, each peptide at varying concentrations (0 μg/ml to 300 μg/ml) was dispensed into each well of a 96-well microplate, and 100 μl (1×10^5 CFU/ml) of each of the prepared strain solutions was added thereto, mixed therewith, and allowed to react with the peptide in an incubator at 37° C. for 1 hour. In addition, 30 g/L of TS (tryptic soy) and 15 g/L of agar were dissolved in distilled water and sterilized, and then 25 ml of the solution was poured onto a 100 mm round plate and solidified at room temperature for one day or more, thereby preparing a TS agar plate. 10 μl of each reaction solution of the peptide and the strain was plated on the TS agar plate at a constant size, and incubated in an incubator at 37° C. for 18 hours, and then colony formation on the plate was checked. The minimum bactericidal concentration was defined as the minimum concentration of the peptide at which no colony was formed, and the experimental results are shown in Table 1 below.

[2] = test system: Pseudomonas aeruginosa (ATCC 27853); assay type: cell-based; conditions: for MBC Pseudomonas aeruginosa: Tables 11-15, no unit printed
Text: as §1

[3] = test system: methicillin-resistant Staphylococcus aureus (ATCC 33591); conditions: Tables 11-15, no unit printed
Procedure: First, each of Pseudomonas aeruginosa (ATCC 27853) and Staphylococcus aureus (ATCC 29213) was cultured in 3% (w/v) TSB (Tryptic Soy Broth) liquid medium at 37° C. and 200 rpm for 4 hours, and then further cultured under the same conditions for 3 hours to a concentration of 5×10^6 CFU/ml. Strain solutions were prepared by diluting each of the further cultured strains with SP (sodium phosphate; 10 mM sodium phosphate, 1% TSB) buffer to a final concentration of 2×10^5 CFU/ml.
Then, each peptide at varying concentrations (0 μg/ml to 300 μg/ml) was dispensed into each well of a 96-well microplate, and 100 μl (1×10^5 CFU/ml) of each of the prepared strain solutions was added thereto, mixed therewith, and allowed to react with the peptide in an incubator at 37° C. for 1 hour.
In addition, 30 g/L of TS (tryptic soy) and 15 g/L of agar were dissolved in distilled water and sterilized, and then 25 ml of the solution was poured onto a 100 mm round plate and solidified at room temperature for one day or more, thereby preparing a TS agar plate. 10 μl of each reaction solution of the peptide and the strain was plated on the TS agar plate at a constant size, and incubated in an incubator at 37° C. for 18 hours, and then colony formation on the plate was checked.
Specifically, each type of bacteria was cultured in 3% (w/v) TSB (Tryptic Soy Broth) liquid medium at 37° C. and 200 rpm for 4 hours, and then further cultured under the same conditions for 3 hours to a concentration of 5×10^6 CFU/ml. Strain solutions were prepared by diluting each of the […] of 2×10^5 CFU/ml.
Then, the KU-5878 peptide at varying concentrations (0 μg/ml to 300 μg/ml) was dispensed into each well of a 96-well microplate, and 100 μl (1×10^5 CFU/ml) of each of the prepared strain solutions was added thereto, mixed therewith, and allowed to react with the peptide in an incubator at 37° C. for 1 hour.
In addition, 10 μl of each reaction solution of the peptide and the strain was plated on the TS agar plate at a constant size, and incubated in an incubator at 37° C. for 18 hours, and then colony formation on the plate was checked.

Molecule | MBC CRPA (CRPA) | MBC value (μg/ml) against Staphylococcus aureus ([1]; ATCC 29213, 1 h) | MBC Staphylococcus aureus [1] | MBC value (μg/ml) against Pseudomonas aeruginosa ([2]; ATCC 27853, 1 h) | MBC Pseudomonas aeruginosa [2] | MBC MRSA [3] | other results
CCCC[C@H](NC(=O)CNC(=O)[C@@H](NC(=O)[C@H](C)NC(=O)[C@H](CCCC)NC(=O)[C@H](Cc1ccccc1)NC(=O)[C@@H](NC(=O)CNC(=O)[C@H](Cc1ccccc1)NC(=O)[C@@H](NC(=O)CNC(=O)CNC(=O)[C@H](CO)NC(=O)[C@H](CCC(N)=O)NC(=O)[C@H](CCCC)NC(=O)[C@H](CCCC)NC(=O)[C@@H](NC(=O)[C@@H](N)CCCCN)[C@@H](C)O)[C@@H](C)O)[C@@H](C)O)[C@@H](C)CC)C(=O)NCC(=O)N[C@H](C(=O)N[C@@H](CCCNC(=N)N)C(=O)O)[C@@H](C)CC [KU-5878-4Nle] (H-KT[Nle][Nle]QSGGTFGTF[Nle]AIG[Nle]GIR-OH; N-terminus and C-terminus assumed) | 100 µg/mL (≈ 46.5 µM) | 90 µg/mL (≈ 41.8 µM) | 90 µg/mL (≈ 41.8 µM) | 110 µg/mL (≈ 51.1 µM) | 110 µg/mL (≈ 51.1 µM) | 100 µg/mL (≈ 46.5 µM) | –
CC[C@@H](C)[C@@H](NC(=O)CNC(=O)[C@@H](CCSC)NC(=O)CNC(=O)[C@H](NC(=O)[C@@H](C)NC(=O)[C@@H](CCSC)NC(=O)[C@@H](Cc1ccccc1)NC(=O)[C@H](NC(=O)CNC(=O)[C@@H](Cc1ccccc1)NC(=O)[C@H](NC(=O)CNC(=O)CNC(=O)[C@@H](CO)NC(=O)[C@@H](CCC(N)=O)NC(=O)[C@@H](CCSC)NC(=O)[C@@H](CCSC)NC(=O)[C@H](NC(=O)[C@H](N)CCCCN)[C@H](C)O)[C@H](C)O)[C@H](C)O)[C@H](C)CC)C(=O)N[C@H](CCCNC(=N)N)C(=O)O [KU-5878-D(all)] (H-[dK][dT][dM][dM][dQ][dS]GG[dT][dF]G[dT][dF][dM][dA][dI]G[dM]G[dI][dR]-OH; N-terminus and C-terminus assumed) | – | – | – | – | – | – | MBC (μg/ml) value against Staphylococcus aureus ([1]; ATCC 29213, 1 h): 300 µg/mL (≈ 135 µM); MBC (μg/ml) value against Pseudomonas aeruginosa ([2]; ATCC 27853, 1 h): 300 µg/mL (≈ 135 µM)
-TMMQSGGTFGTFMAIGMGIR [Peptide 5878-d58K] | 300 µg/mL | – | 300 µg/mL | – | 300 µg/mL | > 300 µg/mL | –
CLRIGMRGRELMGGIGKTM [pCM19, reference compound] | – | 250 µg/mL | – | 300 µg/mL | – | – | –
GGIGKTMMQSGGTFGTFMAIGMGIRC [KU-5479] | – | 200 µg/mL | – | – | – | – | –
GKTMMQSGGTFGTFMAIGMGIR [KU-5778] | – | 280 µg/mL | – | 300 µg/mL | – | – | –
GKTMMQSGGTFGTFMAIGMGIRC [KU-5779] | – | 250 µg/mL | – | 280 µg/mL | – | – | –
K-MMQSGGTFGTFMAIGMGIR [Peptide 5878-d59T] | 150 µg/mL | – | 150 µg/mL | – | 150 µg/mL | 150 µg/mL | –
KAMMQSGGTFGTFMAIGMGIR [KU-5878-T59A] | 130 µg/mL | – | 120 µg/mL | – | 150 µg/mL | 140 µg/mL | –
KHMMQSGGTFGTFMAIGMGIR [KU-5878-T59H] | > 300 µg/mL | – | > 300 µg/mL | – | > 300 µg/mL | > 300 µg/mL | –
KSMMQSGGTFGTFMAIGMGIR [KU-5878-T59S] | > 300 µg/mL | – | > 300 µg/mL | – | > 300 µg/mL | > 300 µg/mL | –
KT-MQS-GTFGTF--IG-GIR [5878-d60M, d64G, d71M, d72A, d75M] | 200 µg/mL | – | 200 µg/mL | – | 200 µg/mL | 200 µg/mL | –
KT-MQS-GTFGTFM-IG-GIR [5878-d60M, d64G, d72A, d75M] | 120 µg/mL | – | 100 µg/mL | – | 120 µg/mL | 120 µg/mL | –
KT-MQS-GTFGTFMAIGMGIR [5878-d60M, d64G] | 100 µg/mL | – | 100 µg/mL | – | 100 µg/mL | 110 µg/mL | –
KT-MQSGGTFGTFM-IG-GIR [5878-d60M, d72A, d75M] | 300 µg/mL | – | 280 µg/mL | – | 300 µg/mL | 300 µg/mL | –
KT-MQSGGTFGTFMAIGMGIR [Peptide 5878-d60M] | 90 µg/mL | – | 90 µg/mL | – | 90 µg/mL | 100 µg/mL | –
KTMMQSGGTFGTFMAIGM [KU-5875] | – | >300 µg/mL | – | >300 µg/mL | – | – | –
KTMMQSGGTFGTFMAIGMG [KU-5876] | – | >300 µg/mL | – | >300 µg/mL | – | – | –
KTMMQSGGTFGTFMAIGMGI [KU-5877] | – | >300 µg/mL | – | >300 µg/mL | – | – | –
KTMMQSGGTFGTFMAIGMGIR-NH2 [KU-5878-NH2] | – | 70 µg/mL | – | 60 µg/mL | – | – | –
KTMMQSGGTFGTFMAIGMGIRC [KU-5879] | – | – | – | 150 µg/mL | – | – | –
MPVAVGPYGQSQPSCFDRVKMGFVMGCAVGMAAGALFGTFSCLRIGMRGRELMGGIGKTMMQSGGTFGTFMAIGMGIRC (protein, Homo sapiens Romo1) MPVAVGPYGQSQPSCFDRVKMGFVMGCAVGMAAGALFGTFSCLRIGMRGRELMGGIGKTMMQSGGTFGTFMAIGMGIRC | – | – | – | – | – | – | MBC value (μg/ml) against Staphylococcus aureus ([1]; ATCC 29213, 1 hour reaction at 37° C.): Insoluble; MBC value (μg/ml) against Pseudomonas aeruginosa ([2]; ATCC 27853, 1 hour reaction at 37° C.): Insoluble
